Experimental data: article PMC8329300, “X-ray crystallography reveals molecular recognition mechanism for sugar binding in a melibiose transporter MelB” (Communications Biology, 2021)

Biological target: T1, WT MelBSt (Salmonella typhimurium, UniProt P30878)
T1 construct: Cys scanning mutagenesis for the full-length MelBSt; His10 (C); made in house; host or cells: E. coli DW2
Assay: biochemical
Format: binding
Details: for IC50: IC50 of galactoside displacement on bound D2G, α-NPG, 10 μM D2G
Description: Fig. 1 Functional characterizations. a [^3H] Melibiose transport time course with intact cells. […] Inset, melibiose fermentation assay. Transformants with DW2 strain were plated on MacConkey agar plates containing 30 mM melibiose as the sole carbohydrate source and pH sensor neutral red, and incubated at 37 °C for 16–18 h before imaging. Number of tests = 3, from different batch of cells or duplicate measurements from same batch of sample. b Ligand binding by Trp→dansyl galactoside (D^2G) FRET assay. Purified proteins at 1 μM concentration in 20 mM Tris-HCl, pH 7.5, 100 mM CholCl, 10% glycerol, and 0.03% UDM were subjected to steady-state fluorescence measurements as described in Methods. On the time-trace, 1.8 μL of 1 mM D^2G at 10 μM was added into 180 μL of protein solutions at 1-min point, followed by supplying 10 μL of 5 mM DDMB or 5 mM α-NPG to displace the bound D^2G. For testing Na^+ or Li^+ binding, they are added into the solution before displacement with the second sugar. The structure of DDMB or α-NPG is shown in a chair form, and the carbon positions are labeled. Glycosidic bonds are indicated by arrows. Both are α-galactosides containing a substituent at the anomeric carbon-1. The data were from duplicate measurements.
Steady-state fluorescence measurements were performed with an AMINCO-Bowman series 2 spectrometer with purified MelBSt at 1 μM in 20 mM Tris-HCl, pH 7.5, 100 mM CholCl, 10% glycerol, 0.03% UDM. Using an excitation wavelength at 290 nm, the emission intensity was recorded at 490 nm. On a time-trace, D^2G, NaCl or LiCl, then DDMB or α-NPG, were sequentially added into the protein solutions at a 1 min-interval. […] An identical volume of water was used for the control. The decrease in intensity after each addition of DDMB or α-NPG was corrected by the dilution effect and plotted as a function of the accumulated α-NPG concentrations or estimated DDMB concentrations. The 50% inhibitory concentration (IC50) was determined by fitting a hyperbolic function to the data (OriginPro 2020b). The final concentration of each detergent is estimated to be 234 μM, which is less than their CMC value for (DDMB, 295 μM).
Supplementary Figure 2. Determination of DDMB binding affinity to MelBSt. (a) Titration with DDMB or a-NPG. MelBSt in 20 mM Tris-HCl, pH 7.5, 100 mM CholCl, 10% glycerol, 0.03% UDM without (1) or with 100 mM NaCl (2) were added with D2G at 10 μM at 1-min time point as indicated by triangle symbols on the Trp®dansyl FRET time trace. Starting at the 2-min of time point, DDMB or a-NPG solution was supplemented consecutively at a 1-min interval into MelBSt solution till no change in fluorescence intensity reached as indicated in star symbols. DDM and UDM were used as negative controls. 1% DDM or UDM was titrated into the mixture, The […]
At 2-min time point, additions of galactosides were colored in pink, a-NPG in yellow, UDM in blue, DDM in light blue, water in gray traces, respectively. (b) IC50 determination. The intensity decrease at each titration were corrected by the dilution effect, and plotted as a function of the accumulated DDMB or α-NPG concentration. The 50% inhibitory concentration (IC50) was determined by fitting the data to a hyperbolic function (OriginPro 2020b). Results are presented in […]
(1 picture or pasted object on this page, not shown here)

T1 sequence (P30878 whole entry): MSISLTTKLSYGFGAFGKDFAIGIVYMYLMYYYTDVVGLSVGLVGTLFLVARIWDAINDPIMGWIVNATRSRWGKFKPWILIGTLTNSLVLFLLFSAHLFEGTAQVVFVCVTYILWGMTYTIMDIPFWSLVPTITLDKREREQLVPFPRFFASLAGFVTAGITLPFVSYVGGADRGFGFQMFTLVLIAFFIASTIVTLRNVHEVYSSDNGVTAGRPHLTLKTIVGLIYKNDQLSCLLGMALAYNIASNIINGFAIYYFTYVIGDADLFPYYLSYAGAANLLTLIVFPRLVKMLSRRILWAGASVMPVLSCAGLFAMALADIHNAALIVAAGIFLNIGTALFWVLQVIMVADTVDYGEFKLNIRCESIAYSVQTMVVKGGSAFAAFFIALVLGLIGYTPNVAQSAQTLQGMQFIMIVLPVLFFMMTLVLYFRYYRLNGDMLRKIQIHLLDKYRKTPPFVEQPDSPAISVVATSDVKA

For `O=[N+]([O-])c1ccc(OC2OC(CO)C(O)C(O)C2O)cc1` [α-NPG, 4-nitrophenyl-α-D-galactopyranoside], the IC50 (Apo) was 58.2 ± 11.5 µM, the IC50 (Na+ (100 mM)) was 23 ± 2.24 µM and the “effect on Trp→D2G FRET of D2G-bound protein (displacement)” value (added to D2G-bound WT MelBSt) was “large decrease in fluorescent intensity”.
